Several values for one entry are separate records, joined by “and”; a condition that tells them apart may be missing. Identical values can stand only once.

The Ki is a measure of affinity in units of concentration, obtained from inhibition or displacement. Usually residual activity stands for the signal under treatment as a percentage of the control signal. Broadly, the IC50 is the concentration at which inhibition is half-maximal.

Data set [1] deals with T1, Solute carrier organic anion transporter family member 1B1 (Homo sapiens, UniProt Q9Y6L6).
T1 sequence (Q9Y6L6 whole entry): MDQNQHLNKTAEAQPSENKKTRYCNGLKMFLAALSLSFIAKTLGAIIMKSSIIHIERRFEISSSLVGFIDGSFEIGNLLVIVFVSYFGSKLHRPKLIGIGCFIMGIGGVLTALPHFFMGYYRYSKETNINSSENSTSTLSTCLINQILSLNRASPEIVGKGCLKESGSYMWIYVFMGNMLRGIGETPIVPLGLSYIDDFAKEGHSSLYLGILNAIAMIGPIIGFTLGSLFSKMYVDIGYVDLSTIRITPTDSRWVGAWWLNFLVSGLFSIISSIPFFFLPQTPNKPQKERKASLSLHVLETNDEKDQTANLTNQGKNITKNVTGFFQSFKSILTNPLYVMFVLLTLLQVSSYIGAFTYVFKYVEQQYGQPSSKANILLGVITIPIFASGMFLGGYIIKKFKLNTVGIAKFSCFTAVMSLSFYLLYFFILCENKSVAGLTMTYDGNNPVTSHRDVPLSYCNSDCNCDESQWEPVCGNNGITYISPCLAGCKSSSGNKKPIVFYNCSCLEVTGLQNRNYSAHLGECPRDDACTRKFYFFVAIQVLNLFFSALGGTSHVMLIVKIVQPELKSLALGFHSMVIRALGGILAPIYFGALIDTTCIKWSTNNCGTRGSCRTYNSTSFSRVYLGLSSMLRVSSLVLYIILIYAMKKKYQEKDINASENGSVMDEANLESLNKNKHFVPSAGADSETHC

The target in data set [2] is T2, Solute carrier organic anion transporter family member 1B3 (Homo sapiens, UniProt Q9NPD5).
T2 sequence (Q9NPD5 whole entry): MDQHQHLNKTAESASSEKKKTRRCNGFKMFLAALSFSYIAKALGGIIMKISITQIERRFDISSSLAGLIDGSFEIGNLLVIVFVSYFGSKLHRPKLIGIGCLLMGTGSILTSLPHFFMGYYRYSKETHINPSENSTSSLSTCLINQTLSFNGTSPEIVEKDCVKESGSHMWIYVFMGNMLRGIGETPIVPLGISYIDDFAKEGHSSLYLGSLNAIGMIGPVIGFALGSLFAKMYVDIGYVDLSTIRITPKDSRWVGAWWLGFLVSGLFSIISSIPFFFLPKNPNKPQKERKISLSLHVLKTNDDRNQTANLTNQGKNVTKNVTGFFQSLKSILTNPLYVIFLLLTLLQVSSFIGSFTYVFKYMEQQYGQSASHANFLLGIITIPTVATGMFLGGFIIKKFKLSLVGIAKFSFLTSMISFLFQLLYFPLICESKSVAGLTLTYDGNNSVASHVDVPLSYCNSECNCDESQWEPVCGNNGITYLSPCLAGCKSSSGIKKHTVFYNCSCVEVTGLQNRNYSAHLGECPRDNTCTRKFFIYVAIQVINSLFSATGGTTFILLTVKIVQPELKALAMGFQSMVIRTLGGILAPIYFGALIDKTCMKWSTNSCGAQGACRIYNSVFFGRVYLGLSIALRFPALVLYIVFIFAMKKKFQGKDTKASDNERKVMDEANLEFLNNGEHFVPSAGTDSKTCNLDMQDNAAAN
Particulars: chinese hamster, cho, 10 µM.

Data set [3] has as its target T1, Solute carrier organic anion transporter family member 1B1. The following applies: chinese hamster, cho, 10 µM.
The target in data set [4] is T2, Solute carrier organic anion transporter family member 1B3.
Data set [5] has as its target T1, Solute carrier organic anion transporter family member 1B1. The source holds these as a separate data set.
Data set [6] addresses T2, Solute carrier organic anion transporter family member 1B3. The source holds these as a separate data set.

Regarding `CCCc1nc2c(C)cc(-c3nc4ccccc4n3C)cc2n1Cc1ccc(-c2ccccc2C(=O)O)cc1`, the Ki in data set [1] is 1030 nM; in data set [4] it was 960 nM. Also, the residual activity is recorded as 41.88% in data set [2] and 77.57% in data set [3]. The figures for the IC50 in data set [5] and in data set [6] were 1860 nM and 1260 nM, respectively.

In the case of `C=C1[C@@H]2CC[C@@]3(C)[C@H](c4ccoc4)OC(=O)C[C@]13O[C@H]1C[C@H](O)C(C)(C)[C@H](CC(=O)OC)[C@]12C`, the figures for the inhibition constant (Ki) in data set [1] and in data set [4] were 680 nM and 3060 nM, respectively. For the same compound, the residual activity in data set [2] was 17.5%; in data set [3], 16%.

With `CC1(C)[C@@H](O)C=C[C@]2(C)[C@H]3CC[C@@]4(C)[C@H](c5ccoc5)OC(=O)[C@H]5O[C@]54[C@]3(C)C(=O)C[C@@H]12`, the Ki in data set [1] came to 1330 nM; in data set [4], 3810 nM. The residual activity is given as 22.22% in data set [2] and 10.83% in data set [3]. Further, the IC50 in data set [5] is 2400 nM; in data set [6], 5010 nM.

As for `C[C@@H]1O[C@H](O[C@@H]2[C@@H](O)[C@H](O[C@@H]3[C@@H](O)[C@@H](O)[C@@H](O[C@H]4[C@@H](OC(=O)[C@]56CCC(C)(C)C[C@@H]5C5=CC[C@@H]7[C@@]8(C)CC[C@H](O[C@@H]9O[C@H](CO)[C@@H](O)[C@H](O)[C@H]9O)C(C)(C)[C@@H]8CC[C@@]7(C)[C@]5(C)C[C@H]6O)OC[C@@H](O)[C@@H]4O)O[C@H]3C)OC[C@H]2O)[C@H](O)[C@H](O)[C@H]1O`, the Ki in data set [1] was determined as 1820 nM; in data set [4], 4020 nM. For the same compound, the residual activity worked out at 17.42% in data set [2] and 25.14% in data set [3]. Besides, the results for the 50% inhibitory concentration (IC50) in data set [5] and in data set [6] were 3310 nM and 5250 nM, respectively.

Consider `CC(=O)O[C@@H]1C[C@H]2C(C)(C)[C@@H](O)CC[C@]2(C)[C@H]2CC[C@]3(C)C(=CC(=O)O[C@H]3c3ccoc3)[C@@]21C`, for which the Ki in data set [1] was 930 nM and 1490 nM; in data set [4] it was 2500 nM and 2390 nM. Moreover, the residual activity in data set [2] worked out at 25.89%; in data set [3] it was 31.46%.

As to `CC1(C)C(=O)[C@@H]2O[C@@H]2[C@]2(C)[C@H]3CC[C@@]4(C)[C@H](c5ccoc5)OC(=O)[C@H]5O[C@]54[C@]3(C)[C@H](O)C[C@@H]12`, the residual activity was determined as 21.3% in data set [2] and 12.73% in data set [3]. The IC50 in data set [5] is 1580 nM; in data set [6] it was 2950 nM.

`CC(=O)O[C@@H]1CC2C(C)(C)[C@H](O)C[C@H](O)[C@@]2(C)C2CC[C@]3(C)C(=CC(=O)O[C@@H]3c3ccoc3)[C@]21C` (stereo partly specified) [1,3-DIDEACETYLDEOXYKHIVORIN]: the Ki in data set [1] stood at 2960 nM; in data set [4], 6590 nM. Besides, the residual activity in data set [2] is 50.83%; in data set [3] it was 31.1%.

With `CC(=O)O[C@H]1CC[C@]2(C)C(C[C@@H](OC(C)=O)[C@]3(C)C4=CC(=O)O[C@H](c5ccoc5)[C@@]4(C)CCC23)C1(C)C` (stereo partly drawn) [3-DEOXO-3beta-ACETOXYDEOXYDIHYDROGEDUNIN], the inhibition constant Ki was found to be 410 nM in data set [1] and 2670 nM in data set [4]. In addition, the residual activity in data set [2] was found to be 20.65%; in data set [3], 14.97%.

`CC(=O)O[C@H]1CC[C@]2(C)[C@H]3C(=O)C=C4[C@@H]5[C@@H](C)[C@H](C)CC[C@]5(C(=O)O)CC[C@@]4(C)[C@]3(C)CC[C@H]2C1(C)C` [11-OXOURSOLIC ACID ACETATE]: the residual activity in data set [2] amounted to 5.189%; in data set [3], 19.79%. Also, the figures for the IC50 in data set [5] and in data set [6] were 11200 nM and 11500 nM, respectively.

Turning to `CCCCCC[C@H]1C(=O)O[C@H](C)[C@H](NC(=O)c2cccc(NC=O)c2O)C(=O)O[C@@H](C)[C@@H]1OC(=O)CC(C)C` [ANTIMYCIN A], the Ki in data set [1] came to 2200 nM; in data set [4] it was 3820 nM. For the same compound, the residual activity stood at 28.62% in data set [2] and 31.93% in data set [3].

Consider `CC[C@H]1OC(=O)[C@H](C)[C@@H](O[C@H]2C[C@@](C)(OC)[C@@H](O)[C@H](C)O2)[C@H](C)[C@@H](O[C@@H]2O[C@H](C)C[C@H](N(C)C)[C@H]2O)[C@](C)(OC)C[C@@H](C)C(=O)[C@H](C)[C@@H](O)[C@]1(C)O` [CLARITHROMYCIN], for which the results for the residual activity in data set [2] and in data set [3] were 80.47% and 56.72%, respectively. Further, the figures for the IC50 in data set [5] and in data set [6] were 3090 nM and 3310 nM, respectively.

As to `Cc1ccc(C)c(OCCCC(C)(C)C(=O)O)c1` [GEMFIBROZIL], the residual activity stood at 71.16% in data set [2] and 56.21% in data set [3]. The results for the concentration for half-maximal inhibition (IC50) in data set [5] and in data set [6] were 4070 nM and 7080 nM, respectively.

With `N[C@@H](C(=O)O)[C@@H](O)[C@H](O)[C@H](O)CO` [GLUCOSAMINIC ACID], the figures for the residual activity in data set [2] and in data set [3] were 25.61% and 63.53%, respectively. In data set [5], 11700 nM corresponded to half-maximal inhibition (IC50).

In the case of `Cc1cc2c(C(C)C)c(O)c(O)c(C=O)c2c(O)c1-c1c(C)cc2c(C(C)C)c(O)c(O)c(C=O)c2c1O` [GOSSYPOL], the Ki in data set [1] is 1780 nM; in data set [4], 3470 nM. For the same compound, the residual activity in data set [3] was 24.45% and 68.48%. The IC50 in data set [5] is 3240 nM; in data set [6], 4570 nM.

As for `CCCCCN(CCCCC)C(=O)C(CCC(=O)[O-])NC(=O)c1ccc(Cl)c(Cl)c1.[Na+]` (stereo unspecified) [LORGLUMIDE SODIUM], the Ki in data set [1] was 2010 nM; in data set [4], 2710 nM. Moreover, the residual activity was 32.85% in data set [2] and 16.54% in data set [3].

In the case of `CC[C@H]1/C=C/C=C/C[C@@H](C)[C@H](O)[C@@](C)(O)C(=O)[C@@H](C)[C@H](O)[C@@H](C)C(=O)[C@@H](C)[C@H](O)[C@@H](C)/C=C/C(=O)O[C@@H]2[C@H](C)[C@H](CC1)O[C@]1(CC[C@H](C)[C@H](C[C@@H](C)O)O1)[C@H]2C` [OLIGOMYCIN], the Ki was determined as 250 nM in data set [1] and 440 nM in data set [4]. Moreover, the residual activity in data set [2] is recorded as 3.002%; in data set [3] it was 11.28%.

For the compound `CC[C@@H](C(=O)[C@@H](C)[C@@H](O)[C@H](C)[C@@H]1O[C@@H]([C@@H](CC)C(=O)[O-])CC[C@@H]1C)[C@H]1O[C@]2(C=C[C@@H](O)[C@]3(CC[C@@](C)([C@H]4CC[C@](O)(CC)[C@H](C)O4)O3)O2)[C@H](C)C[C@@H]1C.[Na+]` [SALINOMYCIN SODIUM], the Ki is 2030 nM in data set [1] and 3310 nM in data set [4]. Besides, the residual activity in data set [2] is listed as 16.99%; in data set [3] it was 21.72%.

For the compound `CC[C@H]1OC(=O)[C@H](C)C(=O)[C@H](C)[C@@H](O[C@@H]2O[C@H](C)C[C@H](N(C)C)[C@H]2O)[C@](C)(OC)C[C@@H](C)C(=O)[C@H](C)[C@H]2N(CCCCn3cnc(-c4cccnc4)c3)C(=O)O[C@]12C` [TELITHROMYCIN], the residual activity was 60.1% in data set [2] and 62.01% in data set [3]. Further, the results for the half-inhibitory concentration (IC50) in data set [5] and in data set [6] were 3470 nM and 5890 nM, respectively.

In the case of `CC(=O)O[C@@H]1C[C@H]2C(C)(C)[C@@H](O)CC[C@]2(C)[C@H]2CC[C@@]3(C)[C@H](c4ccoc4)OC(=O)[C@H]4O[C@]43[C@@]21C` [beta-DIHYDROGEDUNOL], the residual activity in data set [2] stood at 23.84%; in data set [3], 20.54%. Besides, the IC50 was 1700 nM in data set [5] and 3240 nM in data set [6].

`O=C/C=C/c1ccc(O)cc1` [p-HYDROXYCINNAMALDEHYDE]: the residual activity amounted to 70.79% in data set [2] and 139.6% in data set [3].

With `NC/C=C/C(=O)O` [t-4-AMINOCROTONIC ACID (TACA)], the residual activity in data set [2] is 94.21%; in data set [3], 119.6%.

The values are drawn from ChEMBL document CHEMBL3039007, “Structure-based identification of OATP1B1/3 inhibitors” (Mol Pharmacol, 2013).
